Reference: patent US6593342B1, “Pharmaceutical compositions comprising 2-quinolones” (Laboratoire L. Lafon, priority 1998, dated 2003)

Assays:
MXT = assay: Clonogenic test (soft agar colony growth), MXT; assay type: cell-based, mouse; details: 21 days, control = 100%, mean ± SEM
Source text: 1—Interaction (Stimulation or Inhibition of Proliferation) With the Generation of Clonogenic Cells (Clonogenic Test)
The test used is that described by Hamburger et al. (Science, 1977; 197, 461-463) and Salmon et al. (New England J. Med., 298, 1321-1327). A cell is considered clonogenic if it has the capacity to proliferate and to give rise to a cell colony. “Human tumor stem cells” are the cells which are the source of the neoplastic cells which constitute a given tumor. These tumor stem cells are responsible for the relapse processes which may be observed after surgical resection of primary tumors and are also responsible for the formation of metastases. In a tumor or a tumor cell line, these clonogenic stem cells differ from the other cells of the tumor or from the neoplastic cell line under consideration in that they conserve their capacity to proliferate in the absence of any solid support.
In this test, the tumor cells are cultured on a semi-solid support consisting of agar. […] In a tumor cell population, cultured on such a support, it is these clonogenic cells (associated with an unlimited number of cell divisions and whose proliferation is referred to by M. I. Dawson as “anchorage-independent [clonal] growth”) which are capable of growing. The percentage of these clonogenic cells in a tumor or a cell line ranges between 0.1% and 0.001%.
The influence of the compounds of formulae (I) and (Ia) on the growth of the cell colonies obtained by culturing, for example, the mammalian tumor lines MCF7 and MXT and the colorectal line HT-29 on the semi-liquid culture medium known as “soft agar” was measured. On such a medium, only the clonogenic cells referred to by M. I. Dawson as “anchorage-independent (clonal) cells” survive and grow. The growth of these cells in such a “non-adherent” mode bears witness to their degree of tumorigenicity. The inhibition of the growth of the size of a tumor in which a larger number of clonogenic cells has developed then becomes the evidence of reinforced cytotoxic activity.
Conversely, this test can also reveal that a compound is capable of inhibiting the generation/proliferation of clonogenic cells, thus making the tumor less able to grow and thus reducing the population of tumor cells.
The tumor cell lines studied are maintained in culture in 25 cm^2 falcon dishes. They are then trypsinized and the cells are fully dissociated from each other. The percentage of live cells is determined after staining with trypan blue. A cell suspension at a concentration of from 5·10^4 to 15·10^4 cells/ml (depending on the cell type under consideration) is prepared in a 0.3% agar solution. Next, 200 μl of this suspension are inoculated in Petri dishes 35 mm in diameter, in which are placed 3 ml of a base layer consisting of a 0.5% agar solution. The 200 μl of cell suspension are in turn covered with 1.8 ml of an upper layer consisting of a 0.3% agar solution. The dishes are then placed in an incubator at 37° C., 5% CO2 and 70% humidity until the treatment. This treatment is carried out about 1 to 2 hours after the inoculation. The test compounds are prepared at a concentration 100 times greater than the desired concentration and 50 μl of these treating solutions are placed over the upper layer of agar in the corresponding dishes. In the present study, the final concentration of the test products is 10^−5, 10^−7 and 10^−9 M. The dishes are then kept in an incubator for 21 days. On the 21st day the dishes are treated by depositing on the upper layer 100 μl of a 1 mg/ml solution of MTT (3-(4,5-dimethylthiazol-2-yl)-2,5-diphenyltetrazolinium bromide prepared with RPMI 1640 medium) for 3 h at 37° C. After this period, the cell colonies are fixed by adding 2 ml of formalin per dish. After fixing for 24 hours, the formalin is evaporated off and the number of stained cell colonies, thus consisting of metabolically active cells, and whose surface area is greater than 100 μm^2, is determined using an inverted microscope. […]

LoVo = assay: MTT test, LoVo; assay type: cell-based; details: Homo sapiens, 10^−5 M, 72 hours, control = 100%, mean ± SEM, read-out: average optical density (MTT), percentage relative to control
Procedure: The influence of the compounds of formulae (I) and (Ia) on non-clonogenic cells was evaluated with the aid of the MTT calorimetric test.
The principle of the MTT test is based on the mitochondrial reduction, by the metabolically active live cells, of the yellow-colored product MTT (3-(4,5-dimethylthiazol-2-yl)-2,5-diphenyltetrazolium bromide) to a blue-colored product, formazan. The amount of formazan thus obtained is directly proportional to the amount of live cells present in the culture well(s). This amount of formazan is measured by spectrophotometry.
The cell lines are maintained as a monolayer culture at 37° C. in stoppered culture dishes containing MEM 25 MM HEPES (Minimum Essential Medium) base medium. This medium is suited to the growth of a range of various mammalian diploid or primary cells. This medium is then supplemented with:
an amount of 5% of FCS (Foetal Calf Serum) decomplemented at 56° C. for 1 hour,
0.6 mg/ml of L-glutamine,
200 μg/ml of streptomycin,
The 12 human cancer cell lines which were used were obtained from the American Type Culture Collection (ATCC, Rockville, Md., USA). These 12 cell lines are:
HTC-15 (code ATCC: CCL-225) and LoVo (code ATCC: CCL-229) which are two colorectal cancers,
Experimentally: 100 μl of a cell suspension containing 20 000 to 50 000 (depending on the cell type used) cells/ml of culture medium are inoculated in 96-well flat-bottomed multi-well plates and are incubated at 37° C., under an atmosphere comprising 5% CO2 and 70% humidity. After incubation for 24 hours, the culture medium is replaced with 100 μl of fresh medium containing either the various test compounds at concentrations ranging from 10^−5 to 10^−10 M or the solvent used to dissolve the test products (control condition). After incubation for 72 hours under the above conditions, the culture medium is replaced with 100 μl of a yellowish solution of MTT dissolved at a rate of 1 mg/ml in RPMI 1640. The microplates are reincubated for 3 hours at 37° C. and are then centrifuged for 10 minutes at 400×g. The yellowish solution of MTT is removed and the blue formazan crystals formed in the cell are dissolved in 100 μl of DMSO. The microplates are then shaken for 5 minutes. The intensity of the resulting blue coloration, and thus of the conversion of the yellow product MTT into blue formazan by the cells that are still alive at the end of the experiment, is quantified by spectrophotometry using a Dynatech Immunoassay System machine at wavelengths of 570 nm and 630 nm corresponding, respectively, to the maximum absorption wavelengths of formazan and to the background noise. Software incorporated in the spectrophotometer calculates the average optical density values and the standard deviation (SD) and standard error of mean (SEM) values.
By way of example, the results of the average optical density, expressed as a percentage relative to the average optical density measured under the control condition (set equal to 100%), obtained at a concentration of 10^−5 M on the 12 abovementioned tumor cell lines are given in Table II.

Structure (SMILES)	average number of clones of clonogenic cells, percentage relative to control (MXT; 10^−5 M) [%]	average number of clones of clonogenic cells, percentage relative to control (MXT; 10^−7 M) [%]	average number of clones of clonogenic cells, percentage relative to control (MXT; 10^−9 M) [%]	viability at 10 µM (LoVo) [%]
COc1ccc(-c2cc3c(OC)cc(OC)cc3[nH]c2=O)cc1 [CRL8246, 5,7-Dimethoxy-3-(4-methoxyphenyl)-1,2-dihydro-2-quinolinone]	96.7 ± 7.2	97.7 ± 9.3	95.2 ± 6.8	109 ± 7
COc1ccc(-c2cc3c(OC)cc(OC)cc3n(CCC#N)c2=O)cc1 [CRL8247, 3-[5,7-Dimethoxy-3-(4-methoxyphenyl)-2-oxo-1,2-dihydro-1-quinolinyl]propanenitrile]	65.7 ± 1.7	89.6 ± 4.9	98.4 ± 2.6	66.4 ± 2.5
COc1ccc(-c2cc3c(OC)cc(OC)cc3n(CCc3nnn[nH]3)c2=O)cc1 [CRL8256, 1-[2-(1H-1,2,3,4-Tetrazol-5-yl)ethyl]-5,7-dimethoxy-3-(4-methoxyphenyl)-1,2-dihydro-2-quinolinone]	53 ± 1.9	103.8 ± 3.9	104.5 ± 4.7	93 ± 2.3
CCN(CC)C(=O)CCn1c(=O)c(-c2ccc(OC)cc2)cc2c(OC)cc(OC)cc21 [CRL8283, N,N-Diethyl-3-[5,7-dimethoxy-3-(4-methoxy-phenyl)-2-oxo-1,2-dihydro-1-quinolinyl]propanamide]	23.7 ± 1.4	81.2 ± 3	91.4 ± 4	97.3 ± 3.6
CCN(CC)C(=O)Cn1c(=O)c(-c2ccc(OC)cc2)cc2c(OC)cc(OC)cc21 [CRL8315, N,N-Diethyl-2-[5,7-dimethoxy-3-(4-methoxy-phenyl)-2-oxo-1,2-dihydro-1-quinolinyl]acetamide]	76 ± 2.3	103.9 ± 4.3	102.4 ± 3.9	78.9 ± 2.1
COc1ccc(-c2cc3c(OC)cc(OC)cc3n(CCN(C)C)c2=O)cc1 [CRL8316, 1-[2-(Dimethylamino)ethyl]-5,7-dimethoxy-3-(4-methoxyphenyl)-1,2-dihydro-2-quinolinone]	10.8 ± 0.5	89.1 ± 3.7	95.3 ± 3.8	73.9 ± 2.1
